How the values were obtained:
MNT-1 melanoma cells = assay: Whitening effect by inhibition of melanin production; assay type: cell-based; conditions: Homo sapiens, positive control at 200 μg/mL (200 ppm), 72 hours, vs control group, read-out: Melanin production inhibition rate (%)
Method: In order to examine the whitening effect of the Glycyrrhiza sp. extract, 10 g of the Glycyrrhiza sp., which was not treated, steamed at 120° C., or roasted at 200° C. and steamed at 120° C., was extracted with 200 mL of 50% butylene glycol and filtered to prepare each extract.
To culture MNT-1 melanoma cells, a mixture of DMEM (Dulbecco's Modified Eagle's Medium) and FBS (Fetal Bovine Serum) was used as a basic medium, and MNT-1 melanoma cells were dispensed in a 6-well plate at a density of 1×10^5 cells/mL to 2×10^5 cells/mL and cultured for 24 hours. Each extract was treated at a concentration of 0.1% in the cell culture solution, and then cultured for 72 hours. As a control group, 50% butylene glycol was used. Arbutin, which is a positive control, was treated at 200 μg/mL (200 ppm). […] Melanin in the precipitate was dissolved by adding 100 μL of 0.5 N sodium hydroxide solution and incubating for 12 hours, and absorbance at 450 nm was measured using an ELISA reader to measure the total amount of melanin produced. The total amount of melanin, of which production was inhibited as compared to the control group, was determined as the melanin production inhibition rate (%), and the experiment was conducted in triplicate, and then the average value was calculated (Table 5).

Raw264.7 cells = assay: Anti-inflammatory effect by inhibition of NO production (lipopolysaccharide-stimulated); assay type: cell-based; conditions: positive control at 100 μM, lipopolysaccharide 500 ng/mL, 18 hours, vs control group
Method: In order to examine the anti-inflammatory effect of the Glycyrrhiza sp. extract, 10 g of the Glycyrrhiza sp., which was not treated, steamed at 120° C., or roasted at 200° C. and steamed at 120° C., was extracted with 200 mL of 50% butylene glycol and filtered to prepare each extract.
To culture Raw264.7 cells, a mixture of DMEM (Dulbecco's Modified Eagle's Medium) and FBS (Fetal Bovine Serum) was used as a basic medium, and Raw264.7 cells were dispensed in a 24-well plate at a density of 1×10^5 cells/mL to 2×10^5 cells/mL and cultured for 24 hours. After removing the medium and starving with a serum-free medium for 12 hours, each extract was treated at a concentration of 1% in the cell culture solution. 30 minutes later, lipopolysaccharide was added at a concentration of 500 ng/mL, followed by culturing for 18 hours. As a control group, 50% butylene glycol was used. L-NMMA, which is a positive control, was treated at 100 μM. After culturing, the supernatant was taken and transferred to a 96-well plate, and GRIESS reagent was added and reacted at room temperature for 15 minutes. Absorbance at 540 nm was measured using an ELISA reader. The total amount of NO, of which production was inhibited as compared to the control group, was determined as the NO production inhibition rate (%), and the experiment was conducted in triplicate, and then the average value was calculated (Table 6).

SMILES	inhibition at 200 µg/mL (MNT-1 melanoma cells)	NO production inhibition rate (%) (Raw264.7 cells)
OC[C@H]1O[C@@H](Oc2ccc(O)cc2)[C@H](O)[C@@H](O)[C@@H]1O [Arbutin]	19.7%	–
CNC(=N)NCCC[C@H](N)C(=O)O [L-NMMA]	–	60.9%
